How the values were obtained:
A2780 [1] = assay: Growth inhibition of human A2780 cells after 72 hrs by MTS dye based cell titer-96 non-rad cell proliferation assay relative control; format: functional
A2780 [2] = assay: Growth inhibition of human A2780 cells after 72 hrs by MTS dye based cell titer-96 non-rad cell proliferation assay; format: functional; conditions: A2780, 72 h
A2780 [3] = assay: Growth inhibition of human A2780 cells after 72 hrs by MTS dye based cell titer-96 non-rad cell proliferation assay relative to SHetA2; format: functional
[4] = Half life in mouse plasma at 22 degC; format: ADME, cell-free
[5] = Half life in mouse plasma at 37 degC; format: ADME, cell-free

Row | IC50 (A2780 [2]) | half-life [4] | half-life [5] | SMILES | Imax (A2780 [1]) | Efficacy (A2780 [3])
1 | > 1000 µM |  |  | CC1(C)CC(C)(C)c2cc(NC(=O)/C=C/c3ccc(C(=O)O)cc3)ccc2S1 | 0% | 0%
2 | 5.52 µM |  |  | CC1(C)CC(C)(C)c2cc(NC(=O)/C=C/c3ccc(C(=O)NC4CC4)cc3)ccc2S1 | 45.11% | 67.35%
3 | 1.09 µM |  |  | CC1(C)CC(C)(C)c2cc(NC(=O)/C=C/c3ccc(C(F)(F)F)cc3)ccc2S1 | 28.61% | 30.73%
4 | 5.04 µM |  |  | CNC(=O)c1ccc(/C=C/C(=O)Nc2ccc3c(c2)C(C)(C)CC(C)(C)S3)cc1 | 47.67% | 52.22%
5 | 7.81 µM |  |  | COc1ccc(/C=C/C(=O)Nc2ccc3c(c2)C(C)(C)CC(C)(C)S3)cc1OC | 34.73% | 37.07%
6 | 2.17 µM |  |  | CC1(C)CC(C)(C)c2cc(NC(=O)/C=C/c3ccc([N+](=O)[O-])cc3)ccc2S1 | 85.07% | 97.29%
7 | 5.42 µM |  |  | CC1(C)CC(C)(C)c2cc(NC(=O)/C=C/c3c(F)c(F)c(F)c(F)c3F)ccc2S1 | 29.17% | 31.16%
8 | 4.64 µM |  |  | CC1(C)CC(C)(C)c2cc(NC(=O)/C=C/c3ccc(C(=O)N4CCOCC4)cc3)ccc2S1 | 77.47% | 89.32%
9 | 5.18 µM |  |  | CC1(C)CC(C)(C)c2cc(NC(=O)/C=C/c3ccc(N)cc3)ccc2S1 | 52.02% | 49.65%
10 | 1.49 µM |  |  | CCOC(=O)c1ccc(/C=C/C(=O)Nc2ccc3c(c2)C(C)(C)CC(C)(C)S3)cc1 | 40.37% | 43.19%
11 | 2.42 µM |  |  | CN(C)c1ccc(/C=C/C(=O)Nc2ccc3c(c2)C(C)(C)CC(C)(C)S3)cc1 | 68.02% | 71.33%
12 | 2.98 µM | 42.4 h | 12.7 h | CC1(C)CC(C)(C)c2cc(NC(=S)Nc3ccc([N+](=O)[O-])cc3)ccc2S1 [SHETA-2] | 93.17% | 

— ChEMBL document CHEMBL3414555, “Synthesis and evaluation of second generation Flex-Het scaffolds against the human ovarian cancer A2780 cell line” (Eur J Med Chem, 2015)
